Like-named read-outs stand apart in the source and are kept apart here.
Legend:
Assay type in all cases: cell-based
SARS-CoV-2 (B1 variant) = experiment: microbe, parasite or virus in culture; settings: Severe acute respiratory syndrome coronavirus 2, 48 h
SARS-CoV-2 Delta variant = experiment: microbe, parasite or virus in culture; settings: Severe acute respiratory syndrome coronavirus 2; SARS-CoV-2 Delta B.1.617.1
SARS-CoV-2_M:W55F = test system: SARS-CoV-2_M:W55F
SARS-CoV-2 M:A98D = test system: SARS-CoV-2 M:A98D
SARS-CoV-2_M:L29F = test system: SARS-CoV-2_M:L29F
SARS-CoV-2_M:M91K = test system: SARS-CoV-2_M:M91K
SARS-CoV-2_M:L90W = test system: SARS-CoV-2_M:L90W
SARS-CoV-2_M:A85S = test system: SARS-CoV-2_M:A85S
[1] = test system: SARS-CoV-2 Omicron BA.1 variant; experiment: microbe, parasite or virus in culture; settings: Severe acute respiratory syndrome coronavirus 2, SARS-CoV-2 Omicron B.1.1.529
SARS-CoV-2_M:Q185K = test system: SARS-CoV-2_M:Q185K
[2] = read-out: EC50, production of viral RNA
[3] = read-out: EC90, production of viral RNA

Structure (SMILES) | EC50 (SARS-CoV-2 (B1 variant); read-out: EC50, RNA copy numbers (printed in Fig. 1c)) | EC50 (SARS-CoV-2 (B1 variant); [2]) | EC90 (SARS-CoV-2 (B1 variant); read-out: EC90, RNA copy numbers (printed in Fig. 1c)) | EC90 (SARS-CoV-2 (B1 variant); [3]) | EC50 (SARS-CoV-2 Delta variant) | Potency shift (EC50 fold change ± SD vs recombinant WT virus) (SARS-CoV-2_M:W55F) | Potency shift (EC50 fold change ± SD vs recombinant WT virus) (SARS-CoV-2 M:A98D) | Potency shift (EC50 fold change ± SD vs recombinant WT virus) (SARS-CoV-2_M:L29F) | Potency shift (EC50 fold change ± SD vs recombinant WT virus) (SARS-CoV-2_M:M91K) | Potency shift (EC50 fold change ± SD vs recombinant WT virus) (SARS-CoV-2_M:L90W) | Potency shift (EC50 fold change ± SD vs recombinant WT virus) (SARS-CoV-2_M:A85S) | EC50 [1] | Potency shift (EC50 fold change ± SD vs recombinant WT virus) (SARS-CoV-2_M:Q185K)
CC(C)(C)[C@H](NC(=O)C(F)(F)F)C(=O)N1C[C@H]2[C@@H]([C@H]1C(=O)N[C@H](C#N)C[C@@H]1CCNC1=O)C2(C)C [nirmatrelvir, reference compound] | 109 nM | 109 ± 55.6 nM | 268 nM | 268 ± 112 nM | – | – | – | – | – | – | – | – | –
C[C@H]1Cn2ncc(C(=O)Nc3cccc(C#N)c3)c2C(=O)N1c1ccc(C(F)(F)c2ccccc2)cc1 [JNJ-9676, (S)-N-(3-cyanophenyl)-5-(4-(difluoro(phenyl)methyl)phenyl)-6-methyl-4-oxo-4,5,6,7-tetrahydropyrazolo[1,5-a]pyrazine-3-carboxamide] | – | 94 ± 3.4 nM | – | 132 ± 36.7 nM | 14 nM | 0.62 ± 0.26 fold change | 2.02 ± 0.58 fold change | 5.57 ± 0.42 fold change | 10.03 ± 3.28 fold change | 2.47 ± 1.48 fold change | 0.64 ± 0.21 fold change | 26 nM | 5.55 ± 1.92 fold change

Reference: article PMC11981937 (Nature, 2025)
